Where “and” joins values, the source holds several entries; their conditions need not be identical. Equal values may be shown once. Read-outs that look alike come from different tables or passages of the source.
Key:
Assay in all cases: Chemosensitivity, 96 h continuous exposure, MTT assay
Assay type in all cases: cell-based, human
A549 = tested on: A549
In short: (§1)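 Growth inhibition is measured by MTT after cells are dosed for 96 h without washout. The 50% growth-reduction concentration is then interpolated from the curves.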

ARPE-19 non-cancer cells = tested on: ARPE-19 non-cancer cells
In short: as §1

BxPC3 = tested on: BxPC3
In short: as §1

DLD-1 = tested on: DLD-1
In short: as §1

HT-29 = tested on: HT-29
In short: as §1

MCF10A non-cancer cells = tested on: MCF10A non-cancer cells
In short: as §1

PSN1 = tested on: PSN1
In short: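 Cells seeded at 2 × 10^3/well (GBM1 3 × 10^3/well) and left overnight at 37 °C, then exposed continuously for 96 h to a range of compound concentrations (final DMSO 0.2%). Viability read by MTT, absorbance at 540 nm; IC50 taken from dose-response curves as concentration reducing cell growth by 50%.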

Compound: O=S(=O)(O)O.[Zn+2].[Zn+2].[Zn+2].c1ccc(-c2csc(NCCN(CCNc3nc(-c4ccccn4)cs3)CCNc3nc(-c4ccccn4)cs3)n2)nc1.c1ccc(-c2csc(NCCN(CCNc3nc(-c4ccccn4)cs3)CCNc3nc(-c4ccccn4)cs3)n2)nc1 [[L2Zn3(SO4)]4+]
- IC50 (A549; A549, mean of replicates, read-out: Mean IC50): 582 nM
- IC50 (A549; A549, read-out: Mean IC50 values): 582 nM
- IC50 (A549; A549, single replicate, read-out: IC50 values for each replicate): 263 nM and 588 nM and 773 nM and 704 nM
- Selectivity index (ARPE19) (A549; IC50 ARPE-19 / IC50 A549): 290.84
- Selectivity index (MCF10A) (A549; IC50 MCF10A / IC50 A549): 26.16
- Relative potency (+ anion to no anion), Ratio + anion:no anion (A549; ratio of IC50, A549): 1.44
- Selectivity indices relative to ARPE-19, Ratio + anion:no anion (A549; ratio of SI (ARPE-19), A549): 0.745
- Selectivity indices relative to MCF10A, Ratio + anion:no anion (A549; ratio of SI (MCF 10A), A549): 0.065
- IC50 (ARPE-19 non-cancer cells; ARPE-19, mean of replicates, read-out: Mean IC50): 169000 nM
- IC50 (ARPE-19 non-cancer cells; ARPE-19, single replicate, read-out: IC50 values for each replicate): 182000 nM and 150000 nM and 176000 nM
- IC50 (ARPE-19 non-cancer cells; ARPE-19 non-cancer, read-out: Mean IC50 values): 169000 nM
- Relative potency (+ anion to no anion), Ratio + anion:no anion (ARPE-19 non-cancer cells; ratio of IC50, ARPE-19): 1.08
- IC50 (BxPC3; BXPC3, mean of replicates, read-out: Mean IC50): 599 nM
- IC50 (BxPC3; BXPC3, read-out: Mean IC50 values): 599 nM
- IC50 (BxPC3; BXPC3, single replicate, read-out: IC50 values for each replicate): 668 nM and 428 nM and 705 nM and 728 nM and 465 nM
- Selectivity index (ARPE19) (BxPC3; IC50 ARPE-19 / IC50 BXPC3): 282.59
- Selectivity index (MCF10A) (BxPC3; IC50 MCF10A / IC50 BXPC3): 25.42
- Relative potency (+ anion to no anion), Ratio + anion:no anion (BxPC3; ratio of IC50, BXPC3): 1.87
- Selectivity indices relative to ARPE-19, Ratio + anion:no anion (BxPC3; ratio of SI (ARPE-19), BXPC3): 0.575
- Selectivity indices relative to MCF10A, Ratio + anion:no anion (BxPC3; ratio of SI (MCF 10A), BXPC3): 0.050
- IC50 (DLD-1; DLD-1, mean of replicates, read-out: Mean IC50): 338 nM
- IC50 (DLD-1; DLD-1, read-out: Mean IC50 values): 338 nM
- Selectivity index (ARPE19) (DLD-1; IC50 ARPE-19 / IC50 DLD-1): 500.80
- Selectivity index (MCF10A) (DLD-1; IC50 MCF10A / IC50 DLD-1): 45.05
- Relative potency (+ anion to no anion), Ratio + anion:no anion (DLD-1; ratio of IC50, DLD-1): 1.99
- Selectivity indices relative to ARPE-19, Ratio + anion:no anion (DLD-1; ratio of SI (ARPE-19), DLD-1): 0.541
- Selectivity indices relative to MCF10A, Ratio + anion:no anion (DLD-1; ratio of SI (MCF 10A), DLD-1): 0.047
- IC50 (HT-29; HT29, mean of replicates, read-out: Mean IC50): 238 nM
- IC50 (HT-29; HT29, read-out: Mean IC50 values): 238 nM
- IC50 (HT-29; HT-29, single replicate, read-out: IC50 values for each replicate): 70 nM and 166 nM and 210 nM and 243 nM and 499 nM
- Selectivity index (ARPE19) (HT-29; IC50 ARPE-19 / IC50 HT29): 711.22
- Selectivity index (MCF10A) (HT-29; IC50 MCF10A / IC50 HT29): 63.98
- Relative potency (+ anion to no anion), Ratio + anion:no anion (HT-29; ratio of IC50, HT29): 1.41
- Selectivity indices relative to ARPE-19, Ratio + anion:no anion (HT-29; ratio of SI (ARPE-19), HT29): 0.764
- Selectivity indices relative to MCF10A, Ratio + anion:no anion (HT-29; ratio of SI (MCF 10A), HT29): 0.067
- IC50 (MCF10A non-cancer cells; MCF10A non-cancer, read-out: Mean IC50 values): 15200 nM
- IC50 (MCF10A non-cancer cells; MCF10A, mean of replicates, read-out: Mean IC50): 15200 nM
- IC50 (MCF10A non-cancer cells; MCF10A, single replicate, read-out: IC50 values for each replicate): 18.5 µM and 11.3 µM (2×) and 19.7 µM
- Relative potency (+ anion to no anion), Ratio + anion:no anion (MCF10A non-cancer cells; ratio of IC50, MCF10A): 0.09
- Selectivity index (ARPE19) (PSN1; IC50 ARPE-19 / IC50 PSN1): 748.98
- Selectivity index (MCF10A) (PSN1; IC50 MCF10A / IC50 PSN1): 67.38
- IC50 (PSN1; PSN1, mean of replicates, read-out: Mean IC50): 226 nM
- IC50 (PSN1; PSN1, read-out: Mean IC50 values): 226 nM
- IC50 (PSN1; PSN1, single replicate, read-out: IC50 values for each replicate): 217 nM and 199 nM and 261 nM
- activity relative to [L2Zn3(PO4)]3+ or [L2Zn3]6+ (PSN1; PSN1 cell line, anion pre-encapsulated): significantly more active
- Relative potency (+ anion to no anion), Ratio + anion:no anion (PSN1; ratio of IC50, PSN1): 0.05
- Selectivity indices relative to ARPE-19, Ratio + anion:no anion (PSN1; ratio of SI (ARPE-19), PSN1): 21.164
- Selectivity indices relative to MCF10A, Ratio + anion:no anion (PSN1; ratio of SI (MCF 10A), PSN1): 1.852
